In article PMC4070292 (Molecular nutrition & food research, 2012):

Tests used:
NF-κB = NF-κB SEAP reporter gene assay in LPS-stimulated macrophages; type: cell-based, murine; details: 16 h; for effect on LPS-stimulated NF-κB activity: 100 ng/mL LPS, 25 μM; for effect on NF-κB activity without LPS: compound alone with diluent control; for decrease of NF-κB activity versus control / effect on LPS-induced NF-κB activity: LPS; for decrease of NF-κB activity versus control: 50 μM; for effect on LPS-induced NF-κB activity: doses as high as 100 μM
TNF-α = assay: LPS-induced TNF-α release in macrophages; type: cell-based, murine; details: 100 ng/mL LPS
[1] = rats, 14 mg luteolin/kg body weight by gavage, after 1 h ref 48; cited from earlier work
[2] = diet containing 0.2% pure apigenin for 7 days ref 47; cited from earlier work

Structure (SMILES) | effect on LPS-stimulated NF-κB activity (NF-κB) | effect on NF-κB activity without LPS (NF-κB) | effect on LPS-induced TNF-α (TNF-α; 8 h, doses as low as 10 μM) | peak plasma concentration [1] | decrease of NF-κB activity versus control (NF-κB) | effect on LPS-induced NF-κB activity (NF-κB) | effect on LPS-induced TNF-α (TNF-α; 10–25 μM, data not shown) | effect on LPS-induced TNF-α (TNF-α; 8 h, doses as high as 100 μM) | apigenin in mouse plasma [2]
COc1cc(-c2cc(=O)c3c(O)cc(O)cc3o2)ccc1O [chrysoeriol, Chrysoeriol] | significantly reduced | no effect | significant reduction |  |  |  |  |  | 
O=c1cc(-c2ccc(O)c(O)c2)oc2cc(O)cc(O)c12 [luteolin] | significantly reduced | no effect | significant reduction | 6.9 µM |  |  |  |  | 
O=c1cc(-c2ccc(O)c(O)c2)oc2cc(O[C@@H]3O[C@H](CO)[C@@H](O)[C@H](O)[C@H]3O)cc(O)c12 [luteolin 7-O-glucoside] |  | no effect |  |  | not statistically significant | no effect | no effect | no effect | 
O=c1cc(-c2ccc(O)cc2)oc2cc(O)cc(O)c12 [apigenin] |  |  | significant reduction |  |  |  |  |  | 90 nM
O=c1cc(-c2ccc(O)cc2)oc2cc(O[C@@H]3O[C@H](CO)[C@@H](O)[C@H](O)[C@H]3O)cc(O)c12 [apigenin 7-O-glucoside] |  | no effect |  |  | not statistically significant | no effect | no effect | no effect | 
